Assay results taken from BindingDB's records for PubMed 35777718 (Wuxi Apptec, 2022).

Assay: Inhibition of Kir2.1 (unknown origin)

C[C@]1(CN2Cc3nc(-c4ccc(F)cc4)sc3C2)CN=C(N)O1
IC50: > 13.3 µM

C[C@]1(CN2Cc3nc(-c4ccc(F)cc4)sc3C2)Cn2cc([N+](=O)[O-])nc2O1
IC50: > 40 µM
